Assay [1] has as its system PFK. Details: key to Effect (activator or inhibitor of PFK): “+” indicates activator; “-“ indicates inhibitor. The note with it: cited from earlier work; for IC50: asterisk not explained, ref Moreno-Sanchez et al., 2012, read-out: IC50 or AC50 (inhibitor); for Effect (activator or inhibitor of PFK): published literature, ref selected references in Supplementary Table 1.
For assay [2], the target named is T1, recombinant human PFK-P (Homo sapiens, UniProt Q01813).
T1 construct: made in house; host or cells: PFK-deficient Saccharomyces cerevisiae
T1 sequence (Q01813 1-784): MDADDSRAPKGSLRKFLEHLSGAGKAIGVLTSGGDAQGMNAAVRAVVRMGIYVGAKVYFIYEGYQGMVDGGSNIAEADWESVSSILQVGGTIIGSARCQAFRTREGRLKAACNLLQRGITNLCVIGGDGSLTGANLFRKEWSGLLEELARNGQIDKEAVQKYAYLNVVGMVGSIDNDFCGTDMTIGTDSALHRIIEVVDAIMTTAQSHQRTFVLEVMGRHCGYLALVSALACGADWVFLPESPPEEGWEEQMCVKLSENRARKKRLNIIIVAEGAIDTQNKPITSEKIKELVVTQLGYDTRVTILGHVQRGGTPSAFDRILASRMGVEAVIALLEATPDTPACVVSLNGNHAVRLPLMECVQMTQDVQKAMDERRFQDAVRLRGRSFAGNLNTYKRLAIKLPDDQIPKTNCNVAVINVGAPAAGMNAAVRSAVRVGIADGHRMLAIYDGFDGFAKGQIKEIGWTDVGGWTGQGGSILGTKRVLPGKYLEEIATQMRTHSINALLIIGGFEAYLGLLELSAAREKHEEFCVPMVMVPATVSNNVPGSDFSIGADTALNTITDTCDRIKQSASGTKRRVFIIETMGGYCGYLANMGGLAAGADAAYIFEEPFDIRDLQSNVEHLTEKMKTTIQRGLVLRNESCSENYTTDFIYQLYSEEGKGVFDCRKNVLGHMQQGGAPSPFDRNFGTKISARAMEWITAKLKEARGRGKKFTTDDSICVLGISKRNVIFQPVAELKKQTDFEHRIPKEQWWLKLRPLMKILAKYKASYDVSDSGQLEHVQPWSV
Briefly: ALDO-TIM-G3PDH enzyme-linked kinetic assay, PFK-P. It counts as biochemical. On the procedure: (§1) Recombinant human PFKs were expressed in PFK-deficient Saccharomyces cerevisiae and purified using the methods described previously, adapting earlier materials and protocols. Production of PFK intended for use in ATP titration experiments used 1 mM F6P as a tetramer stabilising agent in protein purification and storage buffers. Production of PFK intended for use in F6P titration experiments used 1 mM ATP as a tetramer stabilising agent in protein purification and storage buffers. Experimental details on the purification and characterisation procedures including figures showing SDS–PAGE gels of the highly pure PFKs used in the kinetic experiments described in this work have been recently published.
(§2) Assay buffer consisted of 50 mM TEA, 100 mM KCl, 10 mM MgCl2, 1 mM Tris(2-carboxyethyl)phosphine hydrochloride (TCEP), 10% glycerol, pH 7.4. Assay mix consisted of 5 units/ml glycerol-3-phosphate dehydrogenase (G3PDH, Sigma–Aldrich G6880), 2.5 units/ml aldolase (Sigma–Aldrich A2714), 25 units/ml triosephosphate isomerase (TIM, Sigma–Aldrich T6258), and 1.25 mM NADH. ATP and F6P were obtained from Sigma–Aldrich (A2383 and F3627, respectively). For ATP titrations, 38 µl of buffer or ligand were added to a clear non-binding 96-well plate. 40 µl of assay mix containing 10 mM F6P (final concentration 4 mM) was added and the plate was incubated at 25°C for 5 min. An amount of 2 µl of PFK isoforms were added to each well from stock concentrations of 150 µg/ml and the reaction was immediately started with 20 µl of ATP at varying concentrations. For F6P titrations, 30 µl of buffer or ligand was added to a clear non-binding 96-well plate. An amount of 40 µl of assay mix containing 1.25 mM ATP (final concentration 0.5 mM) was added and the plate was incubated at 25°C for 5 min. An amount of 5 µl of PFK isoforms were added to each well from stock concentrations of 200 µg/ml and the reaction was immediately started with 20 µl F6P at varying concentrations. All ligands and substrates (including ATP) were used at pH 7.4. All metabolites were obtained from Sigma–Aldrich unless otherwise stated. […] A SpectraMax M5 Multi-Mode Microplate Reader was used to measure A340nm at 13 s intervals for 10 min. All experiments were performed in triplicate unless otherwise stated.
(§3) Time-dependent absorbance change was converted into rate of NADH oxidation (µM s^−1) or specific activity (µmol min^−1 mg protein^−1) using the Beer-Lambert law (molar extinction coefficient of NADH 6.22 mM^−1 cm^−1). The initial rate of reaction was used to avoid accumulation of ADP, which activates PFK, interfering with the determination of kinetic properties. Non-linear regression analysis was performed on substrate titration data using GraphPad Prism 7, with curves fitted using allosteric sigmoidal models, enabling determination of steady-state kinetic values.

The target in assay [3] is T2, recombinant human PFK-L (Homo sapiens, UniProt P17858).
T2 construct: made in house; host or cells: PFK-deficient Saccharomyces cerevisiae
T2 sequence (P17858 1-780): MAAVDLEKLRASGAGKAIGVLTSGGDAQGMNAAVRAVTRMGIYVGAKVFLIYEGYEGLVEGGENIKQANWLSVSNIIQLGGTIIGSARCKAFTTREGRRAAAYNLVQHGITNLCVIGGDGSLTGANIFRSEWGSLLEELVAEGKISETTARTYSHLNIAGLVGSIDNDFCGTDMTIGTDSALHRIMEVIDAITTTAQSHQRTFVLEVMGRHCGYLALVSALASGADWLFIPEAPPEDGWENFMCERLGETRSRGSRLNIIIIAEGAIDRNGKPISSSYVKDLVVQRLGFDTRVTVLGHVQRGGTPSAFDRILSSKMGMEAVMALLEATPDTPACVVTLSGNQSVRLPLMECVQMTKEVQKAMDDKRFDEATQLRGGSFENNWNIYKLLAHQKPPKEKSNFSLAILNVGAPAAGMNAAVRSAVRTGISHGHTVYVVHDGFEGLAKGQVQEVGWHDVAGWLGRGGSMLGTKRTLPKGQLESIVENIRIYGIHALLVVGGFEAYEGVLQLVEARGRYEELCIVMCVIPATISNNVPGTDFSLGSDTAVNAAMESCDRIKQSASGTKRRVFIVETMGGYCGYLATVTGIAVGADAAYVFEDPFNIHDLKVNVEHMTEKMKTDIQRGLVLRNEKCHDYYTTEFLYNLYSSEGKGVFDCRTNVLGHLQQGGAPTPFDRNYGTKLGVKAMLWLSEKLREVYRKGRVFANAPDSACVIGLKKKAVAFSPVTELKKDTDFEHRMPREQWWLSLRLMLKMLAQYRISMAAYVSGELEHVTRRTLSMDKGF
Nature of the assay: ALDO-TIM-G3PDH enzyme-linked kinetic assay, PFK-L. It counts as biochemical. The note with it: PFK-L. The procedure:
as §1, §2, §3

Setting [4] is: second of three values marked *.
Where [5] appears, read: 1 mM ATP compared with 0.5 mM ATP.
Setting [6] is: ATP titration, F6P 4 mM, n = 6, mean (SD).
[7] abbreviates: Hill value, ATP titration, F6P 4 mM, n = 6, mean (SD).
Setting [8] is: control without modulator, run alongside modulator experiments, F6P 4mM, N=3, mean (SD).
Setting [9] is: modulator 600 µM, ATP 0.5mM, N=3, mean (SD).
Setting [10] is: modulator 600 µM, F6P 4mM, N=3, mean (SD).

Values joined by “and” are separate entries in the source; they are usually repeats but may differ in a detail not shown here. Equal values may be shown once. Read-outs that look alike come from different tables or passages of the source.

As to `Nc1ncnc2c1ncn2[C@@H]1O[C@H](COP(=O)(O)OP(=O)(O)OP(=O)(O)O)[C@@H](O)[C@H]1O` [ATP], the values for the IC50 in assay [1] (first of three values marked *), in assay [1] (setting [4]) and in assay [1] (third of three values marked *) were 1.1 mM, 2.9 mM and 1.75 mM, respectively. Also, in assay [1], the “Effect (activator or inhibitor of PFK)” value is on record as “-”. For the same molecule, the “decrease in specificity constant (ATP inhibition)” value in assay [2] (setting [5]) turned out to be 50%; in assay [3] (setting [5]), 31%. For the same molecule, the “K0.5^ATP” value in assay [2] (setting [6]) is 275 µM and 276 µM and 275.6 (84.4) µM; in assay [3] (setting [6]), 160 µM and 160.1 (13.5) µM. The results for the “Vmax^ATP” value in assay [2] (setting [6]) and in assay [3] (setting [6]) were 27.2 (2.5) µmoles/min.mg and 39.3 (1.2) µmoles/min.mg, respectively. For the same molecule, the figures for the “kcat^ATP” value in assay [2] (setting [6]) and in assay [3] (setting [6]) were 39.7 (1.7) s^−1 and 57.3 (1.7) s^−1, respectively. The “kcat^ATP/K0.5^ATP” value in assay [2] (setting [6]) was 0.14 s^−1 µM^−1 and 0.14 (0.02) s^−1 µM^−1; in assay [3] (setting [6]), 0.36 s^−1 µM^−1 and 0.36 (0.13) s^−1 µM^−1. The “h (ATP)” value in assay [2] (setting [7]) is given as 0.76 (0.09); in assay [3] (setting [7]) it was 1.12 (0.08). In addition, the K0.5ATP in assay [2] (setting [8]) is 326.9 (99.7) M and 217.9 (74.5) M; in assay [3] (setting [8]) it was 151.2 (16.9) M and 169.0 (21.5) M. Also, the VmaxATP is 30.74 (2.92) moles/min/mg and 23.65 (2.40) moles/min/mg in assay [2] (setting [8]); 39.26 (1.51) moles/min/mg and 39.36 (1.80) moles/min/mg in assay [3] (setting [8]).
Regarding `O=C(O)CC(O)(CC(=O)O)C(=O)O` [Citrate], the IC50 is 5.9 mM in assay [1] (first of three values marked *); 0.49 mM in assay [1] (setting [4]); 6.7 mM in assay [1] (third of three values marked *); 177 ± 132 µM in assay [2] (dose-response, read-out: IC50^citrate). Moreover, in assay [1], the “Effect (activator or inhibitor of PFK)” value was “-”. In addition, the figures for the “change in kcat^ATP/K0.5^ATP compared with control PFK without modulator” value in assay [2] (modulator 600 µM) and in assay [3] (modulator 600 µM) were “+136%” and “+28%”, respectively. Moreover, the “change in kcat^F6P/K0.5^F6P compared with control PFK without modulator” value in assay [2] (modulator 600 µM) was −78%; in assay [3] (modulator 600 µM), “+2%”. In addition, the “K0.5F6P + modulator” value is given as 1494 (627) M in assay [2] (setting [9]) and 2471 (244) M in assay [3] (setting [9]). For the same molecule, the “VmaxF6P + modulator” value is on record as 0.43 (0.12) moles/min/mg in assay [2] (setting [9]) and 6.52 (0.71) moles/min/mg in assay [3] (setting [9]). Further, the entries for the “K0.5ATP + modulator” value in assay [2] (setting [10]) and in assay [3] (setting [10]) were 46.0 (14.4) M and 108.4 (9.5) M, respectively. Also, the “VmaxATP + modulator” value in assay [2] (setting [10]) is 10.18 (0.89) moles/min/mg; in assay [3] (setting [10]), 36.14 (1.12) moles/min/mg. Further, in assay [3] (dose-response), the “IC50^citrate” value was “no clear relationship”.

As usually defined, the IC50 is the midpoint of a concentration-inhibition curve.

Source of the values: paper PMC7702303, “Biochemical and transcript level differences between the three human phosphofructokinases show optimisation of each isoform for specific metabolic niches” (Biochemical Journal, 2020).
